Assay type in all cases: biochemical
For assay [1], the target named is plasmin (Homo sapiens (Human), UniProt P00747). The assay can be described thus: Inhibition constants for plasmin, determined in analogy to uPA.
Assay [2] addresses thrombin (Homo sapiens (Human), UniProt P00734). The assay can be described thus: Inhibition constants for thrombin, determined in analogy to uPA.
In assay [3] the target is uPA (Homo sapiens (Human), UniProt P00749). Description: Inhibition constants for uPA, determined as in Stürzebecher et al. 1997.
Assay [4] addresses trypsin. Description: Inhibition constants for trypsin, determined in analogy to uPA.

Where a name gives a salt, the structure may show the parent alone.

plasmin, sequence (P00747 581-810, species assumed): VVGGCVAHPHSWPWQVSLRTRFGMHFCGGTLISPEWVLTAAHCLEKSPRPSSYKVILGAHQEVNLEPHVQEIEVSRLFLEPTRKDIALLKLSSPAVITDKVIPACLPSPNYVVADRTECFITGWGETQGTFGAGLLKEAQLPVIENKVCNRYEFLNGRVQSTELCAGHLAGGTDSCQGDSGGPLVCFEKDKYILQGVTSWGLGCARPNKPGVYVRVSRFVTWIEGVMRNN
plasmin, sequence (P00747 97-580 partner, species assumed): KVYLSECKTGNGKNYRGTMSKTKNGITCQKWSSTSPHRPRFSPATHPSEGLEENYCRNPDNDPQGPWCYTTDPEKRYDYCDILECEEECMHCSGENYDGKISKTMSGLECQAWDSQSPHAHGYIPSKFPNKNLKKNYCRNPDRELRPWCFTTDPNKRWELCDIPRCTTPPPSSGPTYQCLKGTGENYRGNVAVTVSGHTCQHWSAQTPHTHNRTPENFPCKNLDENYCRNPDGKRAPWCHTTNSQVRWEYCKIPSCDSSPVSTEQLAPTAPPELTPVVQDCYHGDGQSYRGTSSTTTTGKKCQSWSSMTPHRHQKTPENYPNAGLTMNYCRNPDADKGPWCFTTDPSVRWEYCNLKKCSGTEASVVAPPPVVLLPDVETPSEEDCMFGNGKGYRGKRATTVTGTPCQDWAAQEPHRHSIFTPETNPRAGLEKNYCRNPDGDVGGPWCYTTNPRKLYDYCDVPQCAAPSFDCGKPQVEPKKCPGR
trypsin, sequence (P00760 24-246 limits assumed): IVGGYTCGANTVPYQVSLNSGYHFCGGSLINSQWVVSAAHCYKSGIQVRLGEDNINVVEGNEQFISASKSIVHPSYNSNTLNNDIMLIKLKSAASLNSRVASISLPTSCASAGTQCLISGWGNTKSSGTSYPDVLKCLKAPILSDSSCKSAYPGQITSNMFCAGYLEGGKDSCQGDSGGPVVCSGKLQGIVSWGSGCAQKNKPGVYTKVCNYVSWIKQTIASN

In general, Ki refers to the equilibrium dissociation constant of an inhibitor or competing ligand from its target. As to `N=C(N)c1ccc(CNC(=O)CNC(=O)[C@@H](CN)NS(=O)(=O)Cc2ccccc2)cc1` [Example 11, Benzylsulfonyl-dDap-Gly-4-Amba], the Ki in assay [1] stood at 9600 nM; in assay [2], 10000 nM; in assay [3], 180 nM; in assay [4], 180 nM.

Turning to `N=C(N)c1ccc(CNC(=O)[C@H](Cc2cnc[nH]2)NC(=O)[C@@H](CO)NS(=O)(=O)Cc2ccccc2)cc1` [Example 12, Benzylsulfonyl-dSer-His-4-Amba], the Ki in assay [1] was determined as 400 nM; in assay [2] it was 8500 nM; in assay [3], 110 nM; in assay [4], 25 nM.

In the case of `N=C(N)c1ccc(CNC(=O)CNC(=O)[C@@H](CO)NS(=O)(=O)Cc2ccc(CC(=O)O)cc2)cc1` [Example 13, 4(HOOC—CH2)Benzylsulfonyl-dSer-Gly-4-Amba], the Ki came to 27000 nM in assay [1], 60000 nM in assay [2], 130 nM in assay [3] and 300 nM in assay [4].

With `N=C(N)c1ccc(CNC(=O)CNC(=O)[C@@H](CO)NS(=O)(=O)Cc2ccccc2C(=O)O)cc1` [R=2-COOH, X=CH, R1=H], the Ki is 220000 nM in assay [1], 56000 nM in assay [2], 370 nM in assay [3] and 2400 nM in assay [4].

For the molecule `COC(=O)c1ccccc1CS(=O)(=O)N[C@H](CO)C(=O)NCC(=O)NCc1ccc(C(=N)N)cc1` [R=2-COOMe, X=CH, R1=H], the Ki in assay [1] amounted to 38000 nM; in assay [2], 4000 nM; in assay [3], 83 nM; in assay [4], 400 nM.

As to `N=C(N)c1ccc(CNC(=O)CNC(=O)[C@@H](CO)NS(=O)(=O)Cc2ccc(Cl)c(Cl)c2)cc1` [R=3,4-di-Cl, X=CH, R1=H], the Ki in assay [1] came out at 32000 nM; in assay [2], 8300 nM; in assay [3], 110 nM; in assay [4], 600 nM.

Consider `COC(=O)c1cccc(CS(=O)(=O)N[C@H](CO)C(=O)NCC(=O)NCc2ccc(C(=N)N)cc2)c1` [R=3-COOMe, X=CH, R1=H], for which the Ki was 28000 nM in assay [1], 42000 nM in assay [2], 120 nM in assay [3] and 290 nM in assay [4].

As for `N=C(N)c1ccc(CNC(=O)CNC(=O)[C@@H](CO)NS(=O)(=O)Cc2ccc(CN)cc2)cc1` [R=4-(NH2—CH2), X=CH, R1=H, 4-(Aminomethyl)benzylsulfonyl-dSer-Gly-4-amidinobenzylamide×2 TFA], the Ki was 7400 nM in assay [1] and 8000 nM in assay [2].

As for `N#Cc1ccc(CS(=O)(=O)N[C@H](CO)C(=O)NCC(=O)NCc2ccc(C(=N)N)cc2)cc1` [R=4-CN, X=CH, R1=CH], the Ki worked out at 27000 nM in assay [1], 8500 nM in assay [2], 89 nM in assay [3] and 340 nM in assay [4].

Take `COC(=O)c1ccc(CS(=O)(=O)N[C@H](CO)C(=O)N[C@@H](CO)C(=O)NCc2ccc(C(=N)N)cc2)cc1` [R=4-COOMe, X=CH, R1=CH2—OH]: the Ki in assay [1] was 960 nM; in assay [2], 4200 nM; in assay [3], 230 nM; in assay [4] it was 20 nM.

Consider `COC(=O)c1ccc(CS(=O)(=O)N[C@H](CO)C(=O)NCC(=O)NCc2ccc(C(=N)N)cc2)cc1` [R=4-COOMe, X=CH, R1=H], for which the Ki in assay [1] came to 17000 nM; in assay [2], 9400 nM; in assay [3], 620 nM; in assay [4], 180 nM.

For `N=C(N)c1ccc(CNC(=O)CNC(=O)[C@@H](CO)NS(=O)(=O)Cc2ccc(Cl)cc2)cc1` [R=4-Cl, X=CH, R1=H], the Ki in assay [1] worked out at 32000 nM; in assay [2], 7900 nM; in assay [3] it was 32 nM; in assay [4] it was 350 nM.

With `N=C(N)c1ccc(CNC(=O)CNC(=O)[C@@H](CO)NS(=O)(=O)Cc2ccc(F)cc2)cc1` [R=4-F, X=CH, R1=H], the Ki in assay [1] was found to be 20000 nM; in assay [2], 7900 nM; in assay [3] it was 31 nM; in assay [4], 110 nM.

On to `Cc1ccc(CS(=O)(=O)N[C@H](CO)C(=O)NCC(=O)NCc2ccc(C(=N)N)cc2)cc1` [R=4-Me, X=CH, R1=H], for which the Ki came to 18000 nM in assay [1], 8000 nM in assay [2], 58 nM in assay [3] and 210 nM in assay [4].

These data come from patent US8476306B2, “Urokinase inhibitors, production and use thereof” (The Medicines Company (Leipzig) GmbH, priority 2002, dated 2013).
